pIC50: −log10 of the molar value.
Target: T1, mUSP18 (Mus musculus, UniProt Q9WTV6)
T1 construct: (46-368); His-tag (N); made in house
T1 sequence (Q9WTV6 46-368): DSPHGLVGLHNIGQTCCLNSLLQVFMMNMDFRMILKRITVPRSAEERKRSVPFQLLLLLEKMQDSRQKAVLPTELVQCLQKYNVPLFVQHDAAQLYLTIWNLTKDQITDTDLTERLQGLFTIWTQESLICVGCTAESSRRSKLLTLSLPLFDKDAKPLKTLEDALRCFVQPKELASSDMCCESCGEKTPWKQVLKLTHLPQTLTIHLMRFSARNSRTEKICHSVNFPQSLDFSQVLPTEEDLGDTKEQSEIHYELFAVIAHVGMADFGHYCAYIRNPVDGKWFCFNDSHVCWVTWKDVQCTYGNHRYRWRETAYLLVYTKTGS
Assay: High-throughput screening, ISG15ct-RhoMP, single dose 1.25 µM
Assay type: biochemical, murine
Settings: mUSP18 %inhibition; carboxylic acid (CA) building block alone; read-out: %inh CA only

Question: `O=C(O)c1ccc(Cn2ccccc2=O)o1` [CA448] was tested. Which inhibition at 1.25 µM did it give?
Answer: Its inhibition at 1.25 µM is 5.37%.

Question: How did the inhibition at 1.25 µM turn out when `CC(C)n1nccc1[1C@@H]1OCC[1C@H]1C(=O)O` [CA449] was run?
Answer: The inhibition at 1.25 µM was 2.37%.

Question: With `O=C(O)c1cnc(-c2cccnc2)s1` [CA450] as the compound, how does the inhibition at 1.25 µM read?
Answer: The inhibition at 1.25 µM was 0.56%.

Question: `O=C(O)c1ccc(=O)n(C2CC2)c1` [CA451] was tested. Which inhibition at 1.25 µM did it give?
Answer: Its inhibition at 1.25 µM is -1.56%.

Question: For `O=C(O)C1CC(=O)N(OCc2ccccc2)C1` (stereo not drawn) [CA452], which inhibition at 1.25 µM is on record?
Answer: Its inhibition at 1.25 µM is -2.07%.

Question: `O=C(O)CC1CCN(c2ccc(Cl)nn2)CC1` [CA453] was tested. Which inhibition at 1.25 µM did it give?
Answer: The inhibition at 1.25 µM was -0.89%.

Question: `O=C(O)c1cnn(CC2CCC2)c1` [CA454] was tested. Which inhibition at 1.25 µM did it give?
Answer: Its inhibition at 1.25 µM is -1.23%.

Question: `O=C(O)Cc1csc(C2CC2)n1` [CA455] was tested. Which inhibition at 1.25 µM did it give?
Answer: Its inhibition at 1.25 µM is 0.84%.

Question: With `O=C(O)c1cc(C2CCC2)on1` [CA456] as the compound, how does the inhibition at 1.25 µM read?
Answer: Its inhibition at 1.25 µM is 1.15%.

Question: Which inhibition at 1.25 µM does the source give for `O=C(O)C(c1ccccc1)n1cccc1` (stereo not drawn) [CA457] here?
Answer: Its inhibition at 1.25 µM is 0.68%.

Question: With `O=C(O)c1nc(N2CCOCC2)ncc1Cl` [CA458] as the compound, how does the inhibition at 1.25 µM read?
Answer: Its inhibition at 1.25 µM is 2.77%.

Question: For `O=C(O)C1CCCCN1S(=O)(=O)c1ccc(Br)s1` (stereo not drawn) [CA459], which inhibition at 1.25 µM is on record?
Answer: The inhibition at 1.25 µM was -0.93%.

Question: `CC(C)c1cc(C(=O)O)n(-c2ccccc2)n1` [CA460] was tested. Which inhibition at 1.25 µM did it give?
Answer: The inhibition at 1.25 µM was -1.54%.

Question: `O=C(O)c1ccc(-c2ncon2)cc1` [CA461] was tested. Which inhibition at 1.25 µM did it give?
Answer: The inhibition at 1.25 µM was -2.23%.

Question: Which inhibition at 1.25 µM does the source give for `O=C(O)C(CCc1ccccc1)c1ccccc1` (stereo not drawn) [CA462] here?
Answer: The inhibition at 1.25 µM was -0.33%.

Question: Which inhibition at 1.25 µM does the source give for `O=C(O)c1cccc(-c2ncon2)c1` [CA463] here?
Answer: The inhibition at 1.25 µM was -1.44%.

Question: `COC1CC(C(=O)O)N(C(=O)OCc2ccccc2)C1` (stereo not drawn) [CA464] was tested. Which inhibition at 1.25 µM did it give?
Answer: The inhibition at 1.25 µM was -0.15%.

Question: How did the inhibition at 1.25 µM turn out when `Cc1cccc(COc2cccc(C(=O)O)c2)c1` [CA465] was run?
Answer: Its inhibition at 1.25 µM is 2.43%.

Question: For `Cn1cc(-c2cc(C(=O)O)no2)cn1` [CA466], which inhibition at 1.25 µM is on record?
Answer: The inhibition at 1.25 µM was -0.57%.

Question: For `O=C(O)Cc1ccc(NS(=O)(=O)c2cccc(C(F)(F)F)c2)cc1` [CA467], which inhibition at 1.25 µM is on record?
Answer: Its inhibition at 1.25 µM is -0.52%.

Question: For `CC1CCCCN1S(=O)(=O)c1ccccc1C(=O)O` (stereo not drawn) [CA468], which inhibition at 1.25 µM is on record?
Answer: The inhibition at 1.25 µM was -4.17%.

Question: Which inhibition at 1.25 µM does the source give for `O=C(O)c1ccc(S(=O)(=O)N2CCCCCC2)cc1` [CA469] here?
Answer: Its inhibition at 1.25 µM is -5.44%.

Same assay, conditions: mUSP18 %inhibition; carboxylic acid (CA) with coupling reagents DIC/HOBT; read-out: %inh CA + DIC/HOBT

Question: With `O=C(O)c1ccc(Cn2ccccc2=O)o1` [CA448] as the compound, how does the inhibition at 1.25 µM read?
Answer: Its inhibition at 1.25 µM is -5.91%.

Question: Which inhibition at 1.25 µM does the source give for `CC(C)n1nccc1[1C@@H]1OCC[1C@H]1C(=O)O` [CA449] here?
Answer: Its inhibition at 1.25 µM is -9.4%.

Question: `O=C(O)c1cnc(-c2cccnc2)s1` [CA450] was tested. Which inhibition at 1.25 µM did it give?
Answer: The inhibition at 1.25 µM was -9.05%.

Question: How did the inhibition at 1.25 µM turn out when `O=C(O)c1ccc(=O)n(C2CC2)c1` [CA451] was run?
Answer: Its inhibition at 1.25 µM is -6.2%.

Question: With `O=C(O)C1CC(=O)N(OCc2ccccc2)C1` (stereo not drawn) [CA452] as the compound, how does the inhibition at 1.25 µM read?
Answer: Its inhibition at 1.25 µM is -8.76%.

Question: `O=C(O)CC1CCN(c2ccc(Cl)nn2)CC1` [CA453] was tested. Which inhibition at 1.25 µM did it give?
Answer: The inhibition at 1.25 µM was -4.65%.

Question: With `O=C(O)c1cnn(CC2CCC2)c1` [CA454] as the compound, how does the inhibition at 1.25 µM read?
Answer: Its inhibition at 1.25 µM is -8.94%.

Question: How did the inhibition at 1.25 µM turn out when `O=C(O)Cc1csc(C2CC2)n1` [CA455] was run?
Answer: Its inhibition at 1.25 µM is -7.57%.

Question: With `O=C(O)c1cc(C2CCC2)on1` [CA456] as the compound, how does the inhibition at 1.25 µM read?
Answer: Its inhibition at 1.25 µM is -2.8%.

Question: With `O=C(O)C(c1ccccc1)n1cccc1` (stereo not drawn) [CA457] as the compound, how does the inhibition at 1.25 µM read?
Answer: The inhibition at 1.25 µM was -4.48%.

Question: How did the inhibition at 1.25 µM turn out when `O=C(O)c1nc(N2CCOCC2)ncc1Cl` [CA458] was run?
Answer: Its inhibition at 1.25 µM is -1.69%.

Question: Which inhibition at 1.25 µM does the source give for `O=C(O)C1CCCCN1S(=O)(=O)c1ccc(Br)s1` (stereo not drawn) [CA459] here?
Answer: Its inhibition at 1.25 µM is -2.17%.

Question: With `CC(C)c1cc(C(=O)O)n(-c2ccccc2)n1` [CA460] as the compound, how does the inhibition at 1.25 µM read?
Answer: The inhibition at 1.25 µM was -0.28%.

Question: Which inhibition at 1.25 µM does the source give for `O=C(O)c1ccc(-c2ncon2)cc1` [CA461] here?
Answer: Its inhibition at 1.25 µM is -2.33%.

Question: `O=C(O)C(CCc1ccccc1)c1ccccc1` (stereo not drawn) [CA462] was tested. Which inhibition at 1.25 µM did it give?
Answer: The inhibition at 1.25 µM was -1.15%.

Question: Which inhibition at 1.25 µM does the source give for `O=C(O)c1cccc(-c2ncon2)c1` [CA463] here?
Answer: The inhibition at 1.25 µM was -3.17%.

Question: How did the inhibition at 1.25 µM turn out when `COC1CC(C(=O)O)N(C(=O)OCc2ccccc2)C1` (stereo not drawn) [CA464] was run?
Answer: Its inhibition at 1.25 µM is -1.5%.

Question: `Cc1cccc(COc2cccc(C(=O)O)c2)c1` [CA465] was tested. Which inhibition at 1.25 µM did it give?
Answer: The inhibition at 1.25 µM was 2.72%.

Question: Which inhibition at 1.25 µM does the source give for `Cn1cc(-c2cc(C(=O)O)no2)cn1` [CA466] here?
Answer: Its inhibition at 1.25 µM is -1.79%.

Question: How did the inhibition at 1.25 µM turn out when `O=C(O)Cc1ccc(NS(=O)(=O)c2cccc(C(F)(F)F)c2)cc1` [CA467] was run?
Answer: The inhibition at 1.25 µM was 2.94%.

Question: With `CC1CCCCN1S(=O)(=O)c1ccccc1C(=O)O` (stereo not drawn) [CA468] as the compound, how does the inhibition at 1.25 µM read?
Answer: The inhibition at 1.25 µM was 7%.

Question: Which inhibition at 1.25 µM does the source give for `O=C(O)c1ccc(S(=O)(=O)N2CCCCCC2)cc1` [CA469] here?
Answer: Its inhibition at 1.25 µM is 4.89%.

Target: T1, mUSP18
Assay: IC50 determination, fluorogenic ISG15CT-Rho-morpholine activity assay
Assay type: biochemical, murine
Settings: after 30 min incubation; purified compound; ISG15CT-Rho-morpholine substrate

Question: `N#CN1CC[C@H](C(=O)Nc2ncc(N3CCOCC3)s2)C1` [Compound 5] was tested. Which pIC50 did it give?
Answer: The pIC50 was 5.29.

Target: T2, USP32 (Homo sapiens, UniProt Q8NFA0)
T2 construct: (1-1604); His-tag (N); made in house
T2 sequence (Q8NFA0 whole entry): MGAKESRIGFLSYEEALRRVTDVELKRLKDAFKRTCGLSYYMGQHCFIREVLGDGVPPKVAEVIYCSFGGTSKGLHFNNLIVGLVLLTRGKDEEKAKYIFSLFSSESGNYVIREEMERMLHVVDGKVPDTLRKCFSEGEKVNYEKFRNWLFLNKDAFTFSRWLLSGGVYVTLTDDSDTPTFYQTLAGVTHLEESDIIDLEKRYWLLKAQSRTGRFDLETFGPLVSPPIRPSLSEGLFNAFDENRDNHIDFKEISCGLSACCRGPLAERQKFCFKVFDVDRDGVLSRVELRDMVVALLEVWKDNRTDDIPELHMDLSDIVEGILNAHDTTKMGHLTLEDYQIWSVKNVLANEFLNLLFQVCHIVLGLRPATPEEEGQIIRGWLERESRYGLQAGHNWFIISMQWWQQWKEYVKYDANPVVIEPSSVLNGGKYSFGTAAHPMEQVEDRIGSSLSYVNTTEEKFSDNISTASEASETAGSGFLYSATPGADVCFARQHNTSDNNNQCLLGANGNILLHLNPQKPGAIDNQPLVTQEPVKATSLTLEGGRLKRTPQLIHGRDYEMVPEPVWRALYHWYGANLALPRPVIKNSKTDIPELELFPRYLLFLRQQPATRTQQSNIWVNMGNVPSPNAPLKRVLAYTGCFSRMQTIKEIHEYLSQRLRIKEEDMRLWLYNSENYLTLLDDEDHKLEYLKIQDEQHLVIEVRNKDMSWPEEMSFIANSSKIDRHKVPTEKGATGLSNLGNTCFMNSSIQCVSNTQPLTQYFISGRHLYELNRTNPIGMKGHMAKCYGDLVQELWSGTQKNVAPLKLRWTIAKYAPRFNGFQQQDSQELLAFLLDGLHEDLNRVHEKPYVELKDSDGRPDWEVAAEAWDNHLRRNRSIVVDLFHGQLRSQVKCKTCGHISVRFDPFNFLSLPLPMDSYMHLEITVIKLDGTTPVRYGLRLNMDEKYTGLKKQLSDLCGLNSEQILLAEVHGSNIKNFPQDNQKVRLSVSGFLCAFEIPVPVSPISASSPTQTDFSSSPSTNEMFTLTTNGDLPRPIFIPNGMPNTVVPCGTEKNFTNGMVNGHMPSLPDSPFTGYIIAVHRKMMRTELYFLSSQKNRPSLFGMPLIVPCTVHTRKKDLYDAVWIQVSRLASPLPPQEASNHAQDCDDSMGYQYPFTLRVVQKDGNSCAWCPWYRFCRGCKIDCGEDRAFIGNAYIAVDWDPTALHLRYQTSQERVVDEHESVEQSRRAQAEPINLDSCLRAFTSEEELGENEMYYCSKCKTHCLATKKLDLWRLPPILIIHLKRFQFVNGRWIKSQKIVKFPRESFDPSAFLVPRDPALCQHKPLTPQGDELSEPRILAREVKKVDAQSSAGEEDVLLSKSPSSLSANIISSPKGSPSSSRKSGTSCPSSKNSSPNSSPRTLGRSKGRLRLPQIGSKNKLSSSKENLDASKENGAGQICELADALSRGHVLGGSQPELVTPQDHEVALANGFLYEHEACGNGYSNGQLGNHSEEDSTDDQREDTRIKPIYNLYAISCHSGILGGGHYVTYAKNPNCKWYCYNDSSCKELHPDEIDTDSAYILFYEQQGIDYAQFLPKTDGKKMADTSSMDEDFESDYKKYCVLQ
Assay: IC50 determination, fluorogenic Ub-Rho-morpholine activity assay
Assay type: biochemical
Settings: after 30 min incubation; purified compound

Question: With `N#CN1CC[C@H](C(=O)Nc2ncc(N3CCOCC3)s2)C1` [Compound 5] as the compound, how does the pIC50 read?
Answer: The pIC50 was 3.62.

Target: T3, UCHL3 (Homo sapiens, UniProt P15374)
T3 construct: (1-230); made in house
T3 sequence (P15374 1-230): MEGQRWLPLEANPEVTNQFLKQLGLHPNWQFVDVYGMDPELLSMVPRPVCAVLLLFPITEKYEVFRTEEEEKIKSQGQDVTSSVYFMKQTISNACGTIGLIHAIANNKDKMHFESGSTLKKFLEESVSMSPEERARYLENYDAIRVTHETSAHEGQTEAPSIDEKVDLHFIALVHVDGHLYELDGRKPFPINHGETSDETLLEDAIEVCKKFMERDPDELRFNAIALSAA
Assay: as above
Assay type: biochemical
Settings: after 30 min incubation; purified compound

Question: How did the pIC50 turn out when `N#CN1CC[C@H](C(=O)Nc2ncc(N3CCOCC3)s2)C1` [Compound 5] was run?
Answer: The pIC50 was under 3.70.

Target: T4, UCHL1 (Homo sapiens, UniProt P09936)
T4 construct: (1-223); made in house
T4 sequence (P09936 1-223): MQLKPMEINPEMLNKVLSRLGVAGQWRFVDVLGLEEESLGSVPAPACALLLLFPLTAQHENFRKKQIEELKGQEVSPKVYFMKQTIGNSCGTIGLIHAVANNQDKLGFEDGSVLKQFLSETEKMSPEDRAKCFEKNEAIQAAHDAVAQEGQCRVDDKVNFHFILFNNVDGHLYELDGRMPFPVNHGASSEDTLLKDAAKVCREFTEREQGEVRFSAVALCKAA
Assay: as above
Assay type: biochemical
Settings: ratio of IC50 values

Question: `N#CN1CC[C@H](C(=O)Nc2ncc(N3CCOCC3)s2)C1` [Compound 5] was tested. Which “less potency toward USP18 and USP30 compared with UCHL1” value did it give?
Answer: Its value is 20–40 fold.

Source: article PMC12668310, “High‐Throughput Synthesis and Screening of a Cyanimide Library Identifies Selective Inhibitors of ISG15‐Specific Protease mUSP18” (Angewandte Chemie (International Ed. in English), 2025)
